Test results published in US20230364204A1, “Bioactive Peptides, Compositions, Production Process, and Use of Bioactive Peptides as Anti-Tumoral Agents” (priority 2022, published 2023).

Experiments:
[1] = system: Triple negative breast tumor cells (MDAMB231); experiment: Observation of triple negative breast tumor cells after treatment (FIG. 3/4); assay type: cell-based; settings: MDAMB231, treated for 24 h
Method: FIG. 3 illustrates the untreated triple negative tumor cells, presented in large numbers.
FIG. 4 illustrates the tumor cells after being treated with the peptide 3-NantC (SEQ ID 1) for 24h. The arrows indicate the tumor cells, which are shown in smaller numbers and with vesicles when compared with the untreated tumor cells.

[2] = system: benign skin cells - fibroblasts (HDFa); experiment: MTT cell viability, benign fibroblasts; assay type: cell-based; settings: HDFa fibroblasts, 24, 48 and 72 h
Method: For the method of MTT, the cells were plated in 96-well sterile plates for cell culture with a cap at the density of 2 × 10^4 cells/well for treatments lasting 24 h and 1 × 10^4 cells/well for treatments lasting 48 h or more, completing the volume to 100 µL with culture medium. The plates were incubated for 8-16 h in an incubator at 37° C. and 5% CO2. The next day, the treatments were prepared in culture medium, applying 200 µL/well at the desired concentration, and the plates were placed in an incubator at 37° C. and 5% CO2for the duration of treatment. After the treatment period, 20 µL/well of a MTT solution was added in PBS (1×) at a concentration of 5 mg/mL, and the dye was incubated at 37° C. and 5% CO2 for 2.5 h. After incubation with MTT, Formazan salts were solubilized with the addition of 200 µL of dimethylsulfoxide solution (DMSO): isopropanol (3:1) and agitated for at least 15 minutes at room temperature. After complete dissolution of the salts, the absorbance was read in a spectrophotometer at 570 nm with endpoint protocol.
The calculation of cell viability was performed using the formula: […]
O.D.: optical density captured by spectrophotometer
NOTE: The Basal O.D. is the one found in the blank wells. […]

MDAMB231 cells [3] = experiment: BrdU cellular proliferation, tumor cells; assay type: cell-based; settings: MDAMB231, 24 h, 0.2 µg/mL (minimum decrease)
Method: The method of Bomodeoxyuridine (BrdU) quantification was carried out according to the Standard Operational Protocols Nos. 10 and 12 of the Laboratory of Clinical Cytology of the Faculty of Pharmaceutical Sciences of Ribeirao Preto (FCFRP -USP). In this method, for the BrdU quantification, cells were plated in 96-well sterile plates for cell culture with a cap at the density of 2 × 10^4 cells/well for treatments lasting 24 h and 1 × 10^4 cells/well for treatments with 48 h or more, completing the volume to 100 µL with culture medium. The plates were incubated for 8-16 h in an incubator at 37° C. and 5% CO2. The next day, the treatments were prepared in culture medium, applying 200 µL/well at the desired concentration, and the plates were placed in an incubator at 37° C. and 5% CO2 for the duration of treatment. After the treatment period, 20 µL/well of a BrdU-labeling was added and incubated at 37° C. and 5% CO2 for 2.5 h. After incubation with BrdU labeling, the plates were stored at 2-4° C. up to 1 week. […] Substrate was developed for 15 minutes and reaction was stopped with HCl 6 M solution and read in a spectrophotometer at 495 nm with endpoint.
The calculation of cell proliferation was performed using the formula: […]
O.D.: optical density captured by spectrophotometer NOTE: The Basal O.D. is the one found in the blank wells. […]

MDAMB231 cells [4] = experiment: Lactate dehydrogenase (LDH) release; assay type: cell-based; settings: MDAMB231, 24, 48 and 72 h
Method: The lactate dehydrogenase (LDH) is a cytosolic enzyme present in most mammalian cells.
For LDH release protocol, after treatments were performed for the MTT protocol, 20 µL of the supernatant of each well was transferred to an EIA/RIA plate. Then, 20 µL/well of the Reaction Mixture from the CyQUANT™ LDH Cytotoxicity Assay kit and reaction was incubated at RT for 30 minutes in the dark. Then, 60 µL/well of the Stop Solution from the kit was added and plate was read in a spectrophotometer at both 490 nm and 650 nm.
The calculation of LDH release was performed as follows: • 1. The absorbance measured at 650 nm was subtracted from the absorbance measured at 490 nm. • 2. This formula was applied: […]
O.D.: optical density captured by spectrophotometer NOTE: The Basal O.D. is the one found in the blank wells (only reaction mixture and stop solution).
(§1) In order to determine the effects of the peptide in LDH release, autophagy induction and apoptosis/necrosis profile of MDAMB231 cell line, the Analysis of Variance (ANOVA) with Dunnet and Bonferroni post-hoc tests were applied to the significance of 5% in GraphPad Prism software version 6.0.

MDAMB231 cells [5] = experiment: MTT with or without autophagy inhibitor 3-methyladenine (3-MA); assay type: cell-based
Method: The 3-Methyladenine (3-MA) is an autophagy inhibitor (blocks the activation of this mechanism of action). For molecules that trigger autophagy as a cell death mechanism when this pathway is blocked the molecule loses action.
The MTT method was carried out as previously described herein, comparing the effect of 3-NAntC with or without 3-Methyladenine (3-MA).
as §1

zebrafish embryos = experiment: Tolerability in zebrafish embryos; assay type: in vivo; settings: even at a dose 50,000 times higher than the in vitro MDAMB231 IC50 at 24 h
[6] = system: NFKB, Caspases (Caspase 9); experiment: Western blot protein expression; assay type: cell-based; settings: compared to the negative control
[7] = system: Rho-GTPases (Rho-A, Rho-C), protein elongation mechanism; experiment: Proteomics analysis; assay type: cell-based; settings: data not shown

SMILES: CSCC[C@H](N)C(=O)N[C@@H](Cc1ccccc1)C(=O)N[C@@H](Cc1ccc(O)cc1)C(=O)N1CCC[C@H]1C(=O)N[C@@H](CC(=O)O)C(=O)N[C@@H](CO)C(=O)N[C@@H](CCCNC(=N)N)C(=O)N[C@@H](CS)C(=O)N[C@@H](CCCNC(=N)N)C(=O)NCC(=O)N1CCC[C@H]1C(=O)N[C@@H](CO)C(=O)N[C@@H](CCC(=O)O)C(=O)N[C@H](C(=O)O)[C@@H](C)O [3-NAntC, [H]-MFYPDSRCRGPSET-[OH]]
- number of tumor cells compared to no treatment [1]: lower numbers
- number of vesicles compared to no treatment [1]: greater number of vesicles
- effect on viability of benign skin cells (MTT) [2]: not decreasing the viability
- decrease of proliferation rate (BrdU) (MDAMB231 cells [3]): 33%
- LDH release (MDAMB231 cells [4]): does not show any significant increase
- activity with and without the autophagy inhibitor 3-MA (MTT) (MDAMB231 cells [5]): remains the same
- embryo survival (zebrafish embryos): high embryo survival
- tolerability in zebrafish embryos (zebrafish embryos): well tolerated
- activation of Caspases, namely Caspase 9 [6]: greater activation
- activation of pro-survival signals such as NFKB [6]: may inhibit the activation
- Rho-GTPases expression (e.g. Rho-A and Rho-C) [7]: diminished
- protein elongation mechanism [7]: continuously disabling
